Assay results reported in publication PMC6958375 (Pharmaceuticals, 2019).
“Also recorded” adds a separate entry of the source. Read-outs that look alike come from different tables or passages of the source.

Key:
HL60R cells = experiment: Cell growth assay, multidrug resistant HL60R; type: cell-based; details: read-out: HL60 R IC50
Experimental: (§1) Dr. Elda Tagliabue (Molecular Targeting Unit, Department of Experimental Oncology and Molecular Medicine, Fondazione Institute of Hospitalization and Scientific Care, National Cancer Institute, Milan, Italy) kindly provided us the human breast cancer cell lines: MDA-MB-231(ATCC: HTB-26—Rockville, MD, USA) and SUM 149 (SUM149PT—Asterand Bioscience Detroit, MI). The first was cultured in RPMI-1640 and the second was cultured in DMEM/F-12 supplemented with insulin (5 μg/mL). The cells were authenticated using the short tandem repeat profiling method in their Institute. Prof. Giulio Ghersi (STEBICEF Department, University of Palermo, Italy) kindly provided us the non-tumorigenic cell line 1-7HB2 (ECACC 10081201—Cancer Research Technology, London, UK) that was cultured in DMEM low glucose supplemented with hydrocortisone (5 μg/mL) and insulin (10 μg/mL). HL60, obtained from ATCC® (CCL-240, Rockville, MD, USA), and its variant HL60R, obtained by exposure to gradually increasing concentrations of doxorubicin, were cultured in RPMI-1640. All media were supplemented with 10% heat-inactivated fetal calf serum, 2 mM L-glutamine, 100 U/mL penicillin and 100 μg/mL streptomycin (all reagents were from EuroClone S.p.A., Milan, Italy; GE Healthcare Life Sciences, Logan, UT, USA). All cell lines were cultured in a humidified atmosphere at 37 °C in 5% CO2.
(§2) The cells were seeded at 2 × 10^4 cells/well onto 96-well plates and incubated at 37 °C overnight; at time 0, the medium was replaced with fresh complete medium supplemented of compounds at the indicated concentrations. Following 72 h of treatment, 16 μL of a commercial solution obtained from Promega Corporation (Madison, WI, USA) containing 3-(4,5-dimethylthiazol- 2-yl)-5-(3-carboxy methoxyphenyl)-2-(4-sulphophenyl)-2H-tetrazolium (MTS) and phenazine ethosulfate were added. After a incubation in a humidified atmosphere at 37 °C in 5% CO2, the bioreduction of MTS dye was evaluated by measuring the absorbance of each well at 490 nm, using a microplate absorbance reader (iMark Microplate Reader; Bio-Rad Laboratories, Inc., Hercules, CA, USA). Cell growth inhibition was expressed as a percentage (mean ± SE) of the absorbance of the control cells.

1-7HB2 cells = experiment: Cell growth assay (MTS), normal cell line 1-7HB2; type: cell-based; details: cell growth inhibition, 72 h of treatment, mean ± SE
Experimental: as §1, §2

SUM 149 cells [1] = experiment: Cell growth assay (MTS), SUM 149; type: cell-based, human; details: 72 h of treatment, mean ± SE
Experimental: as §1, §2

HL60 cells = experiment: Cell growth assay, HL60; type: cell-based
Experimental: as §1, §2

MDA-MB-231 cells [2] = experiment: Cell growth assay (MTS), MDA-MB-231; type: cell-based, human; details: 72 h of treatment, mean ± SE
Experimental: as §1, §2

[3] = DPPH free radical scavenging assay; type: biochemical; details: DPPH reduction, 1 h in the dark at room temperature, absorbance 517 nm
Experimental: The antioxidant activity was evaluated by the DPPH stable radical method. Trolox (6-hydroxy-2,5,7,8-tetramethyl-chroman-2-carboxylic acid) curve was used as the positive control. 100 μL of sample was added to aliquots of a solution made up with DPPH (4.8 mg) in MeOH (200 mL), and the mixture was incubated in the dark, for 1 h at room temperature. The absorbance was measured using a UV-VIS spectrophotometer, at 517 nm. The results were plotted as the percentage of absorbance disappearance at 517 nm [(1-A/A0) × 100] against the amount of sample divided by the initial concentration of DPPH; lower absorbance values of reaction mixture indicate higher free radical scavenging activity. ED50 corresponds to micrograms of fraction able to consume half the amount of free radical divided by micromoles of initial DPPH. The results were expressed as antiradical capacity (ARC), which is the inverse of ED50. Each point was acquired in triplicate.

Bcl-2 = experiment: Western blot of Bcl-2 in SUM 149 cells; type: cell-based, human; details: SUM 149, 24 h, compound at IC50
Excerpt: (§3) In order to verify if the three analogues alter the expression of some targets of NF-κB, like curcumin, western blot analysis was used. […] In line with the results of NF-κB DNA-binding activity inhibition, only Compounds 1 and 3 caused a decrease of expression of some targets in the same cell lines. In particular, in SUM 149 cells only Compound 3 caused a decreased expression of Survivin (a 55% of reduction respect to control) and Bcl-2 (a 48% of reduction respect to control), while in MDA-MB-231 cells only Compound 1 caused a reduction of IAP1 expression (a 32% of reduction with respect to the control) (Figure 8 and Figure 9).
(§4) Whole-cell lysates were obtained from breast cancer cells using RIPA buffer (Santa Cruz Biotechnology Inc., Dallas, TX, USA) and 25 μg protein was subjected to 10% SDS-PAGE and transferred to Hybond-P membranes (GE Healthcare Europe GmbH, Freiburg, Germany). Filters were incubated with primary antibodies raised against β-actin (Sigma-Aldrich Srl, Milan, Italy), Bcl-2 (Santa Cruz Biotechnology Inc., Dallas, TX, USA), XIAP (Cell Signaling Technology, Danvers, MA), Survivin (Novus Biologicals, Littleton, CO), IAP1 (Cell Signaling Technology, Danvers, MA). […]
(§5) Immunoblots were quantified by densitometry, the data were expressed as arbitrary units (protein/β-actin).

SUM 149 cells [4] = experiment: Pro-oxidant effect by cell counting with NAC, SUM 149; details: for Cell Viability (%): SUM 149, cell counting, mean ± SE
Experimental: (§6) Pro-oxidant effects were examined by cell counting, adding N-acetyl-L-cysteine (NAC), an antioxidant molecule, 1h before compounds. Results were expressed as mean ± standard error (SE) of at least three different experiments performed in duplicate. All the chemicals were supplied by Sigma Aldrich Srl, Milan, Italy.

MDA-MB-231 cells [5] = experiment: Pro-oxidant effect by cell counting with NAC, MDA-MB-231
Experimental: as §6

Survivin = experiment: Western blot of Survivin in SUM 149 cells; type: cell-based, human; details: SUM 149, 24 h, compound at IC50
Excerpt: as §3, §4, §5

NF-κB (p65 subunit) [6] = experiment: NF-κB DNA-binding activity (TransAM), MDA-MB-231 nuclear extracts; type: cell-based, human; details: MDA-MB-231, compounds at IC50 values, 8 h of treatment
Excerpt: (§7) The DNA-binding capacity of NF-κB (p65 subunit) was defined in the nuclear extracts of SUM 149 and MDA-MB-231 cells using the TransAM NF-κB and Nuclear Extract kits (Active Motif, Carlsbad, CA, USA). The determination of binding capacity was based on a 96-well plate, on which an oligonucleotide containing the NF-κB consensus binding site was fixed. […] After addition of a horseradish peroxidase-conjugated secondary antibody, a sensitive colorimetric readout was quantified by densitometry (iMark Microplate Reader; Bio-Rad Laboratories, Inc.). The control of specificity of the assay carried out according to the indications of manufacturer’s protocol. The results were expressed as arbitrary units: one unit indicated the DNA binding capacity exerted by 2.5 μg whole cell extract from Jurkat cells/microgram of protein from the nuclear extracts. Jurkat cells, stimulated with 12-O-tetradecanoylphorbol-13-acetate and calcium ionophore, are the positive control for NF-κB p65 activation.

NF-κB (p65 subunit) [7] = experiment: NF-κB DNA-binding activity (TransAM), SUM 149 nuclear extracts; type: cell-based, human; details: SUM 149, compounds at IC50 values, 24 h of treatment
Excerpt: as §7

IAP1 = experiment: Western blot of IAP1 in MDA-MB-231 cells; type: cell-based, human; details: MDA-MB-231, 8 h, compound at IC50
Excerpt: as §3, §4, §5

[8] = multidrug resistant variant of HL60, cell growth assay
[9] = cell growth inhibition, read-out: SUM149 IC50 (converted)
[10] = acute promyelocytic leukemia HL60, cell growth assay, read-out: HL60 IC50

Compound: C#CCOc1ccc(/C=C/C(=O)CC(=O)/C=C/c2ccc(OCC#C)c(OC)c2)cc1OC [Compound 2, (1E,6E)-1,7-bis(3-methoxy-4-propargyloxyphenyl)hepta-1,6-diene-3,5-dione]
- IC50 (HL60R cells; [8]): 9 µM
- 1-7HB2 IC50 (1-7HB2 cells): not reached
- IC50 (SUM 149 cells [1]; [9]): 13.2 ± 1.59 µM
- IC50 (HL60 cells; [10]): 17 µM
- IC50 (MDA-MB-231 cells [2]; cell growth inhibition): 20 µM

Compound: Cc1c(C)c2c(c(C)c1O)CCC(C)(C(=O)O)O2 (stereo not drawn) [Trolox, 6-hydroxy-2,5,7,8-tetramethyl-chroman-2-carboxylic acid, reference compound]
- ED50 [3]: 12.0 µM

Compound: 4-phenylsulfanyl-(1E,6E)-1,7-bis(4-hydroxy-3-methoxyphenyl)hepta-1,6-diene-3,5-dione [Compound 3]
- reduction of Bcl-2 expression respect to control (Bcl-2): 48%
- Cell Viability (%) (SUM 149 cells [4]; NAC 2 mM 1 h before compound at its IC50): 14.0 ± 4.6%
- Cell Viability (%) (SUM 149 cells [4]; compound alone at its IC50 (curc 14 μM, 1 11 μM, 2 13 μM, 3 14 μM)): 34.0 ± 2.1%
- IC50 (HL60R cells; [8]): 6.7 µM
- Cell Viability (%) (MDA-MB-231 cells [5]; MDA-MB-231, cell counting, compound alone at its IC50 (curc 25 μM, 1 18 μM, 2 20 μM, 3 15 μM), mean ± SE): 25.6 ± 0.7%
- reduction of Survivin expression respect to control (Survivin): 55%
- NF-κB DNA-binding activity (NF-κB (p65 subunit) [6]): NF-κB inhibitors
- IC50 (1-7HB2 cells): 12.5 ± 0.43 µM
- IC50 (SUM 149 cells [1]; [9]): 13.5 ± 0.88 µM
- IC50 (HL60 cells; [10]): < 1 µM
- NF-κB DNA-binding activity (NF-κB (p65 subunit) [7]): stronger decrease than curcumin
- ED50 [3]: 19.2 µM
- IC50 (MDA-MB-231 cells [2]; cell growth inhibition): 15 ± 0.85 µM

Compound: CC(=O)N[C@@H](CS)C(=O)O [NAC, N-acetyl-L-cysteine]
- viability at 2000 µM (SUM 149 cells [4]; Homo sapiens, SUM149, read-out: Cell Viability (%)): 100 ± 9.5%
- viability at 2000 µM (MDA-MB-231 cells [5]; Homo sapiens, MDA-MB-231, read-out: Cell Viability (%)): 87 ± 3.9%

Compound: COc1cc(/C=C/C(=O)CC(=O)/C=C/c2ccc(O)c(OC)c2)ccc1O [Curcumin, reference compound]
- IC50 (HL60R cells; HL60R): 40.5 µM
- IC50 (1-7HB2 cells): 37.5 ± 0.51 µM
- IC50 (SUM 149 cells [1]; Homo sapiens, SUM149, cell growth inhibition): 14 ± 0.29 µM
- IC50 (HL60 cells; Homo sapiens, HL-60, read-out: HL60 IC50): 47.5 µM
- IC50 (MDA-MB-231 cells [2]; Homo sapiens, MDA-MB-231, cell growth inhibition): 25.5 ± 0.35 µM

Compound: (1E,6E)-1-(4-hydroxy-3-methoxyphenyl)-7-(3-methoxy-4-propargyloxyphenyl)hepta-1,6-diene -3,5-dione [Compound 1]
- IC50 (HL60R cells; [8]): 7 µM
- reduction of IAP1 expression with respect to the control (IAP1): 32%
- NF-κB DNA-binding activity (NF-κB (p65 subunit) [6]): NF-κB inhibitors; also recorded: greater effect than curcumin
- IC50 (1-7HB2 cells): 20 µM
- IC50 (SUM 149 cells [1]; [9]): 11.2 µM
- IC50 (HL60 cells; [10]): 14 µM
- IC50 (MDA-MB-231 cells [2]; cell growth inhibition): 18 µM

Compound: COc1cc(/C=C/C(O)=C/C(=O)/C=C/c2ccc(OCc3ccc(CBr)cc3)c(OC)c2)ccc1O [Compound 4, (1E,6E)-1-(4-hydroxy-3-methoxyphenyl)-7-[3-methoxy-4(4-methylbromobenzyl)oxyphenyl] hepta-1,6-diene-3,5-dione]
- 1-7HB2 IC50 (1-7HB2 cells): not reached
- SUM149 IC50 (SUM 149 cells [1]; cell growth inhibition): not reached
- MDA-MB-231 IC50 (MDA-MB-231 cells [2]; cell growth inhibition): not reached

Compound: COc1cc(/C=C/C(=O)/C=C(O)/C=C/c2ccc(OCc3ccc(CBr)cc3)c(OC)c2)ccc1OCc1ccc(CBr)cc1 [Compound 5, (1E,6E)-1,7-bis [3-methoxy-4(4-methylbromobenzyl)oxyphenyl]hepta-1,6-diene-3,5-dione]
- 1-7HB2 IC50 (1-7HB2 cells): not reached
- SUM149 IC50 (SUM 149 cells [1]; cell growth inhibition): not reached
- MDA-MB-231 IC50 (MDA-MB-231 cells [2]; cell growth inhibition): not reached
